From a polymer gas permeability compilation

Structure (SMILES) | CH4 permeability [Barrer] | CO2 permeability [Barrer] | H2 permeability [Barrer] | N2 permeability [Barrer] | O2 permeability [Barrer]
*c1ccc(C(c2ccc(-n3c(=O)c4cc5c(=O)n(*)c(=O)c5cc4c3=O)cc2)(C(F)(F)F)C(F)(F)F)cc1 (repeat unit) | 0.78 | 27.7 | 59.1 | 1.39 | 7.1
*c1c(C)cc(-c2cc(C)c(N3C(=O)c4cc5c(cc4C3=O)S(=O)(=O)c3cc4c(cc3S5(=O)=O)C(=O)N(*)C4=O)c(C)c2)cc1C (repeat unit) | 1.21 | 39 | 58 | 1.33 | 6.6
*c1c(C)c(C)c(N2C(=O)c3ccc(C(c4ccc5c(c4)C(=O)N(*)C5=O)(C(F)(F)F)C(F)(F)F)cc3C2=O)c(C)c1C (repeat unit) | 45.2 | 734 | 434 | 37.8 | 87
*Oc1ccc2c(c1)C1(CC2(C)C)CC(C)(C)c2ccc(OC(=O)c3cccc(C(*)=O)c3)cc21 (repeat unit) | 1.14 | 18.9 | – | 1 | 5.31
*CC(*)c1ccc([Si](C)(C)C)cc1 (repeat unit) | 34 | 227 | 182 | 16 | 56
*Nc1ccc(C(c2ccc(NC(=O)c3cccc(C(*)=O)c3)cc2)(C(F)(F)F)C(F)(F)F)cc1 (repeat unit) | 0.2 | 9 | 29 | 0.42 | 2.4
*Oc1ccc2nc(-c3ccccc3)c(-c3ccc(-c4nc5cc(*)ccc5nc4-c4ccccc4)cc3)nc2c1 (repeat unit) | – | – | 17.2 | – | –
*c1ccc(C(C)(C)c2ccc(-c3nc4cc(-c5ccc6[nH]c(*)nc6c5)ccc4[nH]3)cc2)cc1 (repeat unit) | 0.07 | 2.91 | 12.2 | 0.13 | 0.6
*c1cc(C(=O)OCCC(F)(F)C(F)(F)C(F)(F)C(F)(F)C(F)(F)C(F)(F)F)cc(N2C(=O)c3ccc(C(=O)c4ccc5c(c4)C(=O)N(*)C5=O)cc3C2=O)c1 (repeat unit) | 4.19 | 75 | – | 4.49 | 19.7

Now from value to compound:

CH4 permeability [Barrer] | CO2 permeability [Barrer] | H2 permeability [Barrer] | N2 permeability [Barrer] | O2 permeability [Barrer] | Structure (SMILES)
0.161 | 3.31 | 9.83 | 0.104 | 0.636 | *c1ccc(Oc2ccc(N3C(=O)c4ccc([Si](C)(C)c5ccc6c(c5)C(=O)N(*)C6=O)cc4C3=O)cc2)cc1 (repeat unit)
8.21 | 97.6 | – | 7.08 | 27.4 | *c1c(C)cc(Cc2cc(C)c(-n3c(=O)c4cc5c(=O)n(*)c(=O)c5cc4c3=O)c(C)c2)cc1C (repeat unit)
0.0576 | 2.5 | 6.61 | 0.069 | 0.398 | *c1ccc(Cc2ccc(-n3c(=O)c4cc5c(=O)n(*)c(=O)c5cc4c3=O)cc2)cc1 (repeat unit)
0.221 | 4.65 | – | 0.217 | 1.39 | *Oc1ccc(Oc2ccc(C(=O)c3ccc(*)cc3)cc2)cc1C(C)(C)C (repeat unit)
3.65 | 131 | 212 | 5.32 | 28.1 | *c1ccc2c(c1)C1c3ccccc3C2c2ccc(N3C(=O)c4ccc(C(c5ccc6c(c5)C(=O)N(*)C6=O)(C(F)(F)F)C(F)(F)F)cc4C3=O)cc21 (repeat unit)
– | – | 4.77 | 0.026 | 0.183 | *c1ccc(Oc2ccc(N3C(=O)c4ccc(Oc5ccc6c(c5)C(=O)N(*)C6=O)cc4C3=O)cc2)cc1 (repeat unit)
